According to ChEMBL document CHEMBL3885861, “Open TG-GATES”:

Organism: Rattus norvegicus
Assay: Open TG-GATES - Regimen: Daily Repeat
Type: toxicity, organism-based, Sprague-Dawley
Set-up: regimen Daily Repeat, gender Male, age 6 weeks
Settings: in vivo, po, 0 mg/kg, […], route gavage, dose level Control; for KIDNEY_L / KIDNEY_R / KIDNEY_TOTAL: tissue Kidney; for LIVER: tissue Liver; for ALP / ALT / AST / BUN / CRE / Ca / Cl / DBIL / IP / K / LDH / PL / RALB / TBIL / TC / TG / TP / gamma-GTP / GLC / Na: tissue Plasma

CCOc1ccc(NC(C)=O)cc1 [PHENACETIN]
Fbg (tissue Blood, time 28 day): 276 mg/dL
Hb (tissue Blood, time 28 day): 15 g/dL
Ht (tissue Blood, time 28 day): 43.5%
Lym (tissue Blood, time 28 day): 73.2%
MCH (tissue Blood, time 28 day): 19.2 pg
MCV (tissue Blood, time 28 day): 55.6 fL
Mono (tissue Blood, time 28 day): 2.6%
Neu (tissue Blood, time 28 day): 22.2%
PT (tissue Blood, time 28 day): 14 s
Plat (tissue Blood, time 28 day): 114.1 x10_4/uL
RBC (tissue Blood, time 28 day): 782.6 x10_4/ul
Ret (tissue Blood, time 28 day): 2.6%
WBC (tissue Blood, time 28 day): 109.3 x10_2/uL
KIDNEY_L (time 7 day): 1.1 g
KIDNEY_R (time 7 day): 1.1 g
KIDNEY_TOTAL (time 7 day): 2.3 g
KIDNEY_L (time 14 day): 1.3 g
KIDNEY_R (time 14 day): 1.3 g
KIDNEY_TOTAL (time 14 day): 2.7 g
KIDNEY_L (time 28 day): 1.4 g
KIDNEY_R (time 28 day): 1.4 g
KIDNEY_TOTAL (time 28 day): 2.7 g
LIVER (time 7 day): 12.1 g
LIVER (time 14 day): 13.9 g
LIVER (time 28 day): 17 g
ALP (time 7 day): 1453 IU/L
ALT (time 7 day): 33.4 IU/L
AST (time 7 day): 65.8 IU/L
BUN (time 7 day): 15 mg/dL
CRE (time 7 day): 0.2 mg/dL
Ca (time 7 day): 10.9 mg/dL
Cl (time 7 day): 105 meq/L
DBIL (time 7 day): 0.004 mg/dL
IP (time 7 day): 7.1 mg/dL
K (time 7 day): 4.2 meq/L
LDH (time 7 day): 95.8 IU/L
PL (time 7 day): 167.6 mg/dL
RALB (time 7 day): 2.7 g/dL
TBIL (time 7 day): 0.044 mg/dL
TC (time 7 day): 84.4 mg/dL
TG (time 7 day): 127.8 mg/dL
TP (time 7 day): 5.9 g/dL
gamma-GTP (time 7 day): 1 IU/L
ALP (time 14 day): 1542.8 IU/L
ALT (time 14 day): 36.4 IU/L
AST (time 14 day): 62.4 IU/L
BUN (time 14 day): 14.6 mg/dL
CRE (time 14 day): 0.2 mg/dL
Ca (time 14 day): 10.8 mg/dL
Cl (time 14 day): 104.6 meq/L
DBIL (time 14 day): 0.024 mg/dL
GLC (time 14 day): 181.4 mg/dL
IP (time 14 day): 7.1 mg/dL
K (time 14 day): 4.2 meq/L
LDH (time 14 day): 158.6 IU/L
Na (time 14 day): 143.6 meq/L
PL (time 14 day): 152 mg/dL
RALB (time 14 day): 2.7 g/dL
TBIL (time 14 day): 0.062 mg/dL
TC (time 14 day): 72.6 mg/dL
TG (time 14 day): 129 mg/dL
TP (time 14 day): 6 g/dL
gamma-GTP (time 14 day): 1.2 IU/L
ALP (time 28 day): 1212.8 IU/L
ALT (time 28 day): 37 IU/L
AST (time 28 day): 68.2 IU/L
BUN (time 28 day): 17.2 mg/dL
CRE (time 28 day): 0.3 mg/dL
Ca (time 28 day): 10.7 mg/dL
Cl (time 28 day): 104.8 meq/L
DBIL (time 28 day): 0.02 mg/dL
GLC (time 28 day): 185.2 mg/dL
IP (time 28 day): 6 mg/dL
K (time 28 day): 4 meq/L
LDH (time 28 day): 76.6 IU/L
Na (time 28 day): 144.8 meq/L
PL (time 28 day): 149 mg/dL
RALB (time 28 day): 2.9 g/dL
TBIL (time 28 day): 0.048 mg/dL
